From ChEMBL document CHEMBL3612029, “Design, synthesis and anticancer activity of Michael-type thiol adducts of α-santonin analogue with exocyclic methylene” (Eur J Med Chem, 2015) come the findings set out here.

The subject of one assay is PC-3. Description: Cytotoxicity against human PC3 cells assessed as growth inhibition after 48 hrs by sulphorhodamine B assay. Format: functional, cell-based. The settings on record: PC-3, 48 h. For orientation: The SRB assay estimates cell density from bound dye.
In assay [1] the test system is MCF7. Description: Cytotoxicity against human MCF7 cells assessed as growth inhibition after 48 hrs by sulphorhodamine B assay. In kind it is functional, cell-based. The settings on record: MCF7, 48 h.
Another assay concerns A549. Description: Cytotoxicity against human A549 cells assessed as growth inhibition after 48 hrs by sulphorhodamine B assay. In kind it is functional, cell-based. The settings on record: A549, 48 h.
Another assay relates to HCT-116. Description: Cytotoxicity against human HCT116 cells assessed as growth inhibition after 48 hrs by sulphorhodamine B assay. Format: functional, cell-based. The settings on record: HCT-116, 48 h.
Assay [2] has as its system MCF7. Description: Cell cycle arrest in human MCF7 cells assessed as accumulation at subG1 phase after 24 hrs by propidium iodide staining-based flow cytometric analysis. Format: functional. Background: Flow cytometry measures light scatter and fluorescence of single cells or particles in a stream.
Assay [3] relates to MCF7. Description: Cell cycle arrest in human MCF7 cells assessed as accumulation at subG1 phase at 1 uM after 24 hrs by propidium iodide staining-based flow cytometric analysis (reference value: 4.8%). In kind it is functional.
Assay [4] concerns MCF7. Description: Cell cycle arrest in human MCF7 cells assessed as accumulation at subG1 phase at 1.5 uM after 24 hrs by propidium iodide staining-based flow cytometric analysis (reference value: 4.8%). In kind it is functional.
Assay [5] has as its target Transcription factor p65 (Homo sapiens) (UniProt Q04206). Description: Inhibition of NF-kappa-B p65 subunit binding to DNA response element in human MCF7 cell nuclear lysates after 24 hrs.
For assay [6] the target is unchanged. Description: Inhibition of NF-kappa-B p65 subunit binding to DNA response element in human MCF7 cell nuclear lysates at 1.5 uM after 24 hrs relative to control.
For assay [7] the target is unchanged. Description: Inhibition of NF-kappa-B p65 subunit binding to DNA response element in human MCF7 cell nuclear lysates at 2 uM after 24 hrs relative to control.
For assay [8] the target is unchanged. Description: Inhibition of NF-kappa-B p65 subunit binding to DNA response element in human MCF7 cell nuclear lysates at 1 uM after 24 hrs relative to control.
Assay [9] concerns MCF7. Description: Cell cycle arrest in human MCF7 cells assessed as accumulation at subG1 phase at 5 uM after 24 hrs by propidium iodide staining-based flow cytometric analysis (reference value: 4.8%). In kind it is functional.
Assay [10] relates to MCF7. Description: Cell cycle arrest in human MCF7 cells assessed as accumulation at subG1 phase at 2 uM after 24 hrs by propidium iodide staining-based flow cytometric analysis (reference value: 4.8%). In kind it is functional.
In assay [11] the target is Transcription factor p65 (Homo sapiens) (UniProt Q04206). Description: Inhibition of NF-kappa-B p65 subunit binding to DNA response element in human MCF7 cell nuclear lysates at 3 uM after 24 hrs relative to control.
Sequence of Transcription factor p65 (Homo sapiens) (Q04206 whole entry): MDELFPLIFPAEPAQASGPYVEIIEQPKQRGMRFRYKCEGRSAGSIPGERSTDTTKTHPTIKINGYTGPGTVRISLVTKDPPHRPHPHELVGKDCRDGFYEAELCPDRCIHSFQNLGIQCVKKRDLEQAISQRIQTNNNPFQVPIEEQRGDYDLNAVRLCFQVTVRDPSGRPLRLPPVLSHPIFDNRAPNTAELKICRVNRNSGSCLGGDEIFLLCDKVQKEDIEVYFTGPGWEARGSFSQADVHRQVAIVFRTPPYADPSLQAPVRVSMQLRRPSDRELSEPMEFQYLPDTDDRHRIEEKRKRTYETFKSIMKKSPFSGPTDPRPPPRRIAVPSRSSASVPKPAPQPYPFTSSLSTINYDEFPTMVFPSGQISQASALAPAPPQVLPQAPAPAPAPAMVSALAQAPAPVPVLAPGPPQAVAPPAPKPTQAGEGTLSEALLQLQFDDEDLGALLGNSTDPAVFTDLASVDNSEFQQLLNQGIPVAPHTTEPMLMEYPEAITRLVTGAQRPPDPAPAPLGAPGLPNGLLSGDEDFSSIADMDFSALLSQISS

By IC50 is commonly meant the midpoint of a concentration-inhibition curve. In general, inhibition refers to the drop in the measured response relative to a control, in per cent. As for `CC1=C2[C@H]3OC(=O)[C@@H](CSc4ccc(Br)cc4)[C@@H]3CC[C@@]2(C)C=CC1=O`, the IC50 in the assay on PC-3 stood at 1.5 µM; in the assay with MCF7 [1], 0.6 µM; in the assay on A549 it was 2.4 µM; in the assay with HCT-116, 1.2 µM. In addition, the Activity result with MCF7 [2] is “Dose-dependent effect”; in the assay on MCF7 [3], 36.8%; in the assay on MCF7 [4] it was 44.5%. For the same compound, the inhibition result is “Dose-dependent effect” in assay [5], 45% in assay [6] and 57% in assay [7].

For the compound `CC1=C2[C@H]3OC(=O)[C@@H](CSc4ccccn4)[C@@H]3CC[C@@]2(C)C=CC1=O`, the IC50 came out at 1.9 µM with PC-3, 0.4 µM in the assay with MCF7 [1], 4.1 µM in the assay on A549 and 0.5 µM in the assay on HCT-116. For the same compound, the Activity in the assay on MCF7 [3] amounted to 38%; in the assay with MCF7 [4], 44.6%. Besides, the inhibition result in assay [5] is “Dose-dependent effect”; in assay [6] it was 43%; in assay [8], 27%.

With `CC[C@@]1(O)C(=O)OCc2c1cc1n(c2=O)Cc2cc3ccccc3nc2-1` [CAMPTOTHECIN], the Activity with MCF7 [9] is on record as 52.4%.

As for `CC1=C2[C@H]3OC(=O)[C@@H](C)[C@@H]3CC[C@@]2(C)C=CC1=O` [SANTONIN], the half-maximal inhibitory concentration (IC50) with PC-3, in the assay with MCF7 [1], with A549 and in the assay with HCT-116 was over 50 µM in each case.

As for `CC1=C2[C@H]3OC(=O)[C@@H](CSc4ncc[nH]4)[C@@H]3CC[C@@]2(C)C=CC1=O`, the concentration for half-maximal inhibition (IC50) in the assay on PC-3 was found to be 4.7 µM; in the assay with MCF7 [1], 2.4 µM; in the assay with A549 it was 8.8 µM; in the assay on HCT-116, 0.8 µM.

As for `CC1=C2[C@H]3OC(=O)[C@@H](CSc4ccccc4F)[C@@H]3CC[C@@]2(C)C=CC1=O`, the IC50 in the assay with PC-3 was found to be 2 µM; in the assay with MCF7 [1], 1.2 µM; in the assay with A549 it was 1.8 µM; in the assay with HCT-116, 0.9 µM.

As to `CC1=C2[C@H]3OC(=O)[C@@H](CSc4ccccc4Cl)[C@@H]3CC[C@@]2(C)C=CC1=O`, the IC50 with PC-3 was found to be 9.1 µM; in the assay on MCF7 [1], 23.2 µM; with A549, 6.6 µM; in the assay with HCT-116 it was 16.6 µM.

In the case of `COc1ccc(SC[C@@H]2C(=O)O[C@@H]3C4=C(C)C(=O)C=C[C@]4(C)CC[C@@H]23)cc1`, the 50% inhibitory concentration (IC50) in the assay on PC-3 was 13.1 µM; with MCF7 [1], 21.4 µM; in the assay on A549, 8.9 µM; in the assay with HCT-116, 24.9 µM.

On to `CC1=C2[C@H]3OC(=O)[C@@H](CSc4ccc(Cl)cc4)[C@@H]3CC[C@@]2(C)C=CC1=O`, for which the IC50 in the assay with PC-3 came out at 2.1 µM; in the assay on MCF7 [1], 1 µM; with A549 it was 2.7 µM; in the assay on HCT-116, 0.8 µM. The results for the Activity entry with MCF7 [2], with MCF7 [4] and with MCF7 [10] were “Dose-dependent effect”, 45.1% and 46.6%, respectively. Also, the inhibition entry is “Dose-dependent effect” in assay [5], 36% in [6], 49% in [7] and 62% in [11].

With `CC1=C2[C@H]3OC(=O)[C@@H](CSC4CCCCC4)[C@@H]3CC[C@@]2(C)C=CC1=O`, the IC50 was over 50 µM in the assay on PC-3, over 50 µM in the assay with MCF7 [1], 45.2 µM in the assay with A549 and over 50 µM in the assay on HCT-116.

On to `CC1=C2[C@H]3OC(=O)[C@@H](CSc4nc5ccccc5c(=O)[nH]4)[C@@H]3CC[C@@]2(C)C=CC1=O`, for which the IC50 in the assay with PC-3 is 31.1 µM; with MCF7 [1], 17.2 µM; with A549, 18.3 µM; in the assay on HCT-116 it was 20.3 µM.

Consider `C=C1C(=O)O[C@@H]2C3=C(C)C(=O)C=C[C@]3(C)CC[C@@H]12`, for which the IC50 is 32.7 µM in the assay on PC-3, 25.2 µM in the assay on MCF7 [1], over 50 µM with A549 and 31.5 µM in the assay with HCT-116.

On to `CC1=C2[C@H]3OC(=O)[C@@H](CSc4ccc(C)c(Br)c4)[C@@H]3CC[C@@]2(C)C=CC1=O`, for which the IC50 in the assay with PC-3 is 31 µM; with MCF7 [1] it was 20.2 µM; in the assay on A549, 4.1 µM; in the assay with HCT-116, 0.8 µM.

Take `CC1=C2[C@H]3OC(=O)[C@@H](CSc4nc5ccccc5n4C)[C@@H]3CC[C@@]2(C)C=CC1=O`: the IC50 with PC-3 stood at 34.9 µM; with MCF7 [1], 39.2 µM; in the assay with A549 it was 42 µM; with HCT-116 it was 20.7 µM.

For `CC1=C2[C@H]3OC(=O)[C@@H](CSc4ccc(F)c(F)c4)[C@@H]3CC[C@@]2(C)C=CC1=O`, the half-inhibitory concentration (IC50) with PC-3 is 2.9 µM; with MCF7 [1], 1 µM; in the assay on A549 it was 5.9 µM; in the assay with HCT-116, 0.7 µM.

Consider `CC1=C2[C@H]3OC(=O)[C@@H](CSc4ccc(F)cc4)[C@@H]3CC[C@@]2(C)C=CC1=O`, for which the concentration for half-maximal inhibition (IC50) with PC-3 came out at 4.5 µM; in the assay with MCF7 [1], 7.3 µM; with A549, 1.1 µM; with HCT-116 it was 0.8 µM.

Turning to `CC1=C2[C@H]3OC(=O)[C@@H](CSc4ccccc4C)[C@@H]3CC[C@@]2(C)C=CC1=O`, the IC50 in the assay on PC-3 was found to be 20.7 µM; with MCF7 [1], 20.9 µM; with A549, 0.9 µM; in the assay on HCT-116, 21.5 µM.

On to `CC1=C2[C@H]3OC(=O)[C@@H](CSc4ccc(Br)cc4C)[C@@H]3CC[C@@]2(C)C=CC1=O`, for which the IC50 was 8.5 µM with PC-3, 8.5 µM with MCF7 [1], 10 µM in the assay on A549 and 1.4 µM in the assay with HCT-116.

For `CC1=C2[C@H]3OC(=O)[C@@H](CSc4ccc(C)cc4)[C@@H]3CC[C@@]2(C)C=CC1=O`, the concentration for half-maximal inhibition (IC50) in the assay with PC-3 came to 5.7 µM; in the assay on MCF7 [1] it was 6 µM; in the assay on A549 it was 7.4 µM; in the assay with HCT-116 it was 12.1 µM.

Regarding `O=c1[nH]cc(F)c(=O)[nH]1` [FLUOROURACIL], the 50% inhibitory concentration (IC50) in the assay on HCT-116 came out at 4.5 µM.

Take `CC1=C2[C@H]3OC(=O)[C@@H](CSc4ccccc4Br)[C@@H]3CC[C@@]2(C)C=CC1=O`: the IC50 in the assay with PC-3 is 2.6 µM; in the assay on MCF7 [1], 2.3 µM; with A549, 2.8 µM; with HCT-116, 1.1 µM.

With `CC1=C2[C@H]3OC(=O)[C@@H](CSc4ccccc4N)[C@@H]3CC[C@@]2(C)C=CC1=O`, the IC50 was 10.8 µM in the assay with PC-3, 7.8 µM with MCF7 [1], 30.7 µM with A549 and 13 µM with HCT-116.

On to `CC1=C2[C@H]3OC(=O)[C@@H](CSc4ccccc4)[C@@H]3CC[C@@]2(C)C=CC1=O`, for which the half-inhibitory concentration (IC50) stood at 25.9 µM in the assay on PC-3, 25.2 µM in the assay on MCF7 [1], 19.8 µM in the assay on A549 and 19.1 µM in the assay with HCT-116.

`COc1ccccc1SC[C@@H]1C(=O)O[C@@H]2C3=C(C)C(=O)C=C[C@]3(C)CC[C@@H]12`: the IC50 with PC-3 was 40.7 µM; with MCF7 [1], 36.1 µM; in the assay with A549 it was over 50 µM; with HCT-116, 45.9 µM.

With `CCSC[C@@H]1C(=O)O[C@@H]2C3=C(C)C(=O)C=C[C@]3(C)CC[C@@H]12`, the IC50 in the assay with PC-3 came out at 9.9 µM; in the assay with MCF7 [1] it was 23.5 µM; with A549, 12.2 µM; in the assay with HCT-116, 16.5 µM.
